From ChEMBL document CHEMBL1138895, “Synthesis and antibacterial activity of nocathiacin I analogues” (Bioorg Med Chem Lett, 2006)
Converted amounts (≈) assume the structure as drawn.

Assays:
Staphylococcus aureus = experiment: Antibacterial activity against methicillin-sensitive Staphylococcus aureus A15090; format: functional
Streptococcus pneumoniae = experiment: Antibacterial activity against penicillin resistant Streptococcus pneumoniae A28272; format: functional
Enterococcus faecalis = experiment: Antibacterial activity against […] A20688; format: functional
Mus musculus = organism: Mus musculus; experiment: Activity against Staphylococcus aureus A15090 infected ICR mouse after 8 days; format: functional; conditions: 192 h, read-out: PD50
[1] = Solubility at pH 3.1; format: physicochemical; conditions: buffer
[2] = Solubility at pH 7.4; format: physicochemical; conditions: buffer
[3] = Solubility at pH 3.0; format: physicochemical; conditions: buffer
[4] = Solubility at pH 3.2; format: physicochemical; conditions: buffer

| Structure (SMILES) | MIC (Staphylococcus aureus) | MIC (Streptococcus pneumoniae) | MIC (Enterococcus faecalis) | ED50 (Mus musculus) | solubility [1] | solubility [2] | solubility [3] | solubility [4] |
| --- | --- | --- | --- | --- | --- | --- | --- | --- |
| CO/C(C)=C1/NC(=O)[C@H]([C@@H](C)O)NC(=O)c2csc(n2)-c2cc(O)c(-c3nc(C(=O)N[C@@H](C)C(=O)NCCO)cs3)nc2-c2csc(n2)[C@@H]2COC(=O)c3c4c5c(cccc5n3O)COC(=O)[C@@H](O[C@H]3C[C@](C)(O)[C@H](N(C)C)[C@H](C)O3)[C@@H](OC4)[C@H](NC(=O)c3csc1n3)c1nc(cs1)C(=O)N2 | 0.03 µg/mL (≈ 0.0202 µM) | 0.001 µg/mL (≈ 0.000674 µM) | 0.5 µg/mL (≈ 0.337 µM) | 1.44 mg/kg | 1300 µg/mL (≈ 876 µM) | – | – | – |
| CO/C(C)=C1/NC(=O)[C@H]([C@@H](C)O)NC(=O)c2csc(n2)-c2cc(O)c(-c3nc(C(=O)N[C@@H](C)C(N)=O)cs3)nc2-c2csc(n2)[C@@H]2COC(=O)c3c4c5c(cccc5n3O)COC(=O)[C@@H](O[C@H]3C[C@](C)(O)[C@H](N(C)C)[C@H](C)O3)[C@@H](OC4)[C@H](NC(=O)c3csc1n3)c1nc(cs1)C(=O)N2 | 0.25 µg/mL (≈ 0.174 µM) | 0.06 µg/mL (≈ 0.0417 µM) | 2 µg/mL (≈ 1.39 µM) | 1.65 mg/kg | 700 µg/mL (≈ 486 µM) | – | – | – |
| CO/C(C)=C1/NC(=O)[C@H]([C@@H](C)O)NC(=O)c2csc(n2)-c2cc(O)c(-c3nc(C(=O)N[C@@H](C)C(=O)NCc4ccc(CP(=O)(O)O)cc4)cs3)nc2-c2csc(n2)[C@@H]2COC(=O)c3c4c5c(cccc5n3O)COC(=O)[C@@H](O[C@H]3C[C@](C)(O)[C@H](N(C)C)[C@H](C)O3)[C@@H](OC4)[C@H](NC(=O)c3csc1n3)c1nc(cs1)C(=O)N2 | 1 µg/mL (≈ 0.616 µM) | 0.25 µg/mL (≈ 0.154 µM) | 2 µg/mL (≈ 1.23 µM) | > 10 mg/kg | – | > 2600 µg/mL | – | – |
| CO/C(C)=C1/NC(=O)[C@H]([C@@H](C)O)NC(=O)c2csc(n2)-c2cc(O)c(-c3nc(C(=O)N[C@@H](C)C(=O)N4CCC[C@H]4CO)cs3)nc2-c2csc(n2)[C@@H]2COC(=O)c3c4c5c(cccc5n3O)COC(=O)[C@@H](O[C@H]3C[C@](C)(O)[C@H](N(C)C)[C@H](C)O3)[C@@H](OC4)[C@H](NC(=O)c3csc1n3)c1nc(cs1)C(=O)N2 | 0.03 µg/mL (≈ 0.0197 µM) | 0.015 µg/mL (≈ 0.00984 µM) | 0.25 µg/mL (≈ 0.164 µM) | 2.18 mg/kg | 2200 µg/mL (≈ 1440 µM) | – | – | – |
| CO/C(C)=C1/NC(=O)[C@H]([C@@H](C)O)NC(=O)c2csc(n2)-c2cc(O)c(-c3nc(C(=O)N[C@@H](C)C(=O)NCCOCCO)cs3)nc2-c2csc(n2)[C@@H]2COC(=O)c3c4c5c(cccc5n3O)COC(=O)[C@@H](O[C@H]3C[C@](C)(O)[C@H](N(C)C)[C@H](C)O3)[C@@H](OC4)[C@H](NC(=O)c3csc1n3)c1nc(cs1)C(=O)N2 | 0.03 µg/mL (≈ 0.0196 µM) | 0.015 µg/mL (≈ 0.00982 µM) | 0.25 µg/mL (≈ 0.164 µM) | 1 mg/kg | > 2900 µg/mL | – | – | – |
| CO/C(C)=C1/NC(=O)[C@H]([C@@H](C)O)NC(=O)c2csc(n2)-c2cc(O)c(-c3nc(C(=O)N[C@@H](C)C(=O)NCCc4ccncc4)cs3)nc2-c2csc(n2)[C@@H]2COC(=O)c3c4c5c(cccc5n3O)COC(=O)[C@@H](O[C@H]3C[C@](C)(O)[C@H](N(C)C)[C@H](C)O3)[C@@H](OC4)[C@H](NC(=O)c3csc1n3)c1nc(cs1)C(=O)N2 | 0.125 µg/mL (≈ 0.0809 µM) | 0.015 µg/mL (≈ 0.00971 µM) | 0.06 µg/mL (≈ 0.0388 µM) | 3.3 mg/kg | – | – | > 3400 µg/mL | – |
| CO/C(C)=C1/NC(=O)[C@H]([C@@H](C)O)NC(=O)c2csc(n2)-c2cc(O)c(-c3nc(C(=O)N[C@@H](C)C(=O)NCCOP(=O)([O-])[O-])cs3)nc2-c2csc(n2)[C@@H]2COC(=O)c3c4c5c(cccc5n3O)COC(=O)[C@@H](O[C@H]3C[C@](C)(O)[C@H](N(C)C)[C@H](C)O3)[C@@H](OC4)[C@H](NC(=O)c3csc1n3)c1nc(cs1)C(=O)N2.[Na+].[Na+] | 8 µg/mL | 0.5 µg/mL | 16 µg/mL | 1.65 mg/kg | – | > 4800 µg/mL | – | – |
| CO/C(C)=C1/NC(=O)[C@H]([C@@H](C)O)NC(=O)c2csc(n2)-c2cc(O)c(-c3nc(C(=O)N[C@@H](C)C(=O)NC[C@H](O)CO)cs3)nc2-c2csc(n2)[C@@H]2COC(=O)c3c4c5c(cccc5n3O)COC(=O)[C@@H](O[C@H]3C[C@](C)(O)[C@H](N(C)C)[C@H](C)O3)[C@@H](OC4)[C@H](NC(=O)c3csc1n3)c1nc(cs1)C(=O)N2 | 0.25 µg/mL (≈ 0.165 µM) | 0.03 µg/mL (≈ 0.0198 µM) | 0.25 µg/mL (≈ 0.165 µM) | 5 mg/kg | > 2200 µg/mL | – | – | – |
| CO/C(C)=C1/NC(=O)[C@H]([C@@H](C)O)NC(=O)c2csc(n2)-c2cc(O)c(-c3nc(C(=O)N[C@@H](C)C(=O)N[C@@H]4[C@@H](O)[C@H](O)[C@@H](CO)O[C@H]4O)cs3)nc2-c2csc(n2)[C@@H]2COC(=O)c3c4c5c(cccc5n3O)COC(=O)[C@@H](O[C@H]3C[C@](C)(O)[C@H](N(C)C)[C@H](C)O3)[C@@H](OC4)[C@H](NC(=O)c3csc1n3)c1nc(cs1)C(=O)N2 | 1 µg/mL (≈ 0.624 µM) | 0.06 µg/mL (≈ 0.0375 µM) | 0.5 µg/mL (≈ 0.312 µM) | > 10 mg/kg | > 2200 µg/mL | – | – | – |
| CO/C(C)=C1/NC(=O)[C@H]([C@@H](C)O)NC(=O)c2csc(n2)-c2cc(O)c(-c3nc(C(=O)N[C@@H](C)C(=O)NCc4ccc(O)cc4)cs3)nc2-c2csc(n2)[C@@H]2COC(=O)c3c4c5c(cccc5n3O)COC(=O)[C@@H](O[C@H]3C[C@](C)(O)[C@H](N(C)C)[C@H](C)O3)[C@@H](OC4)[C@H](NC(=O)c3csc1n3)c1nc(cs1)C(=O)N2 | 0.007 µg/mL (≈ 0.00453 µM) | 0.007 µg/mL (≈ 0.00453 µM) | 0.03 µg/mL (≈ 0.0194 µM) | 4.35 mg/kg | 480 µg/mL (≈ 311 µM) | – | – | – |
| CO/C(C)=C1/NC(=O)[C@H]([C@@H](C)O)NC(=O)c2csc(n2)-c2cc(O)c(-c3nc(C(=O)N[C@@H](C)C(=O)NC(CC(=O)O)C(=O)O)cs3)nc2-c2csc(n2)[C@@H]2COC(=O)c3c4c5c(cccc5n3O)COC(=O)[C@@H](O[C@H]3C[C@](C)(O)[C@H](N(C)C)[C@H](C)O3)[C@@H](OC4)[C@H](NC(=O)c3csc1n3)c1nc(cs1)C(=O)N2 (stereo not given in full) | 16 µg/mL (≈ 10.3 µM) | 0.25 µg/mL (≈ 0.161 µM) | 16 µg/mL (≈ 10.3 µM) | – | – | – | – | – |
| CO/C(C)=C1/NC(=O)[C@H]([C@@H](C)O)NC(=O)c2csc(n2)-c2cc(O)c(-c3nc(C(=O)N[C@@H](C)C(=O)NCCc4ccc(O)c(O)c4)cs3)nc2-c2csc(n2)[C@@H]2COC(=O)c3c4c5c(cccc5n3O)COC(=O)[C@@H](O[C@H]3C[C@](C)(O)[C@H](N(C)C)[C@H](C)O3)[C@@H](OC4)[C@H](NC(=O)c3csc1n3)c1nc(cs1)C(=O)N2 | 0.25 µg/mL (≈ 0.159 µM) | 0.125 µg/mL (≈ 0.0793 µM) | 0.5 µg/mL (≈ 0.317 µM) | > 10 mg/kg | – | – | 7 µg/mL (≈ 4.44 µM) | – |
| CO/C(C)=C1/NC(=O)[C@H]([C@@H](C)O)NC(=O)c2csc(n2)-c2cc(O)c(-c3nc(C(=O)N[C@@H](C)C(=O)N(C)C[C@@H](O)[C@@H](O)[C@@H](O)[C@@H](O)CO)cs3)nc2-c2csc(n2)[C@@H]2COC(=O)c3c4c5c(cccc5n3O)COC(=O)[C@@H](O[C@H]3C[C@](C)(O)[C@H](N(C)C)[C@H](C)O3)[C@@H](OC4)[C@H](NC(=O)c3csc1n3)c1nc(cs1)C(=O)N2 | 0.125 µg/mL (≈ 0.0773 µM) | 0.015 µg/mL (≈ 0.00927 µM) | 0.5 µg/mL (≈ 0.309 µM) | – | – | – | – | > 2400 µg/mL |
| CO/C(C)=C1/NC(=O)[C@H]([C@@H](C)O)NC(=O)c2csc(n2)-c2cc(O)c(-c3nc(C(=O)N[C@@H](C)C(=O)N4CCC(O)CC4)cs3)nc2-c2csc(n2)[C@@H]2COC(=O)c3c4c5c(cccc5n3O)COC(=O)[C@@H](O[C@H]3C[C@](C)(O)[C@H](N(C)C)[C@H](C)O3)[C@@H](OC4)[C@H](NC(=O)c3csc1n3)c1nc(cs1)C(=O)N2 | 0.007 µg/mL (≈ 0.00459 µM) | 0.003 µg/mL (≈ 0.00197 µM) | 0.06 µg/mL (≈ 0.0394 µM) | 4.35 mg/kg | – | – | – | 1100 µg/mL (≈ 722 µM) |
| CO/C(C)=C1/NC(=O)[C@H]([C@@H](C)O)NC(=O)c2csc(n2)-c2cc(O)c(-c3nc(C(=O)N[C@@H](C)C(=O)NCCc4cc(O)cc(O)c4)cs3)nc2-c2csc(n2)[C@@H]2COC(=O)c3c4c5c(cccc5n3O)COC(=O)[C@@H](O[C@H]3C[C@](C)(O)[C@H](N(C)C)[C@H](C)O3)[C@@H](OC4)[C@H](NC(=O)c3csc1n3)c1nc(cs1)C(=O)N2 | 0.25 µg/mL (≈ 0.159 µM) | 0.06 µg/mL (≈ 0.0381 µM) | 0.5 µg/mL (≈ 0.317 µM) | > 10 mg/kg | – | – | 20 µg/mL (≈ 12.7 µM) | – |
| CO/C(C)=C1/NC(=O)[C@H]([C@@H](C)O)NC(=O)c2csc(n2)-c2cc(O)c(-c3nc(C(=O)N[C@@H](C)C(=O)NCCc4ccc(O)cc4)cs3)nc2-c2csc(n2)[C@@H]2COC(=O)c3c4c5c(cccc5n3O)COC(=O)[C@@H](O[C@H]3C[C@](C)(O)[C@H](N(C)C)[C@H](C)O3)[C@@H](OC4)[C@H](NC(=O)c3csc1n3)c1nc(cs1)C(=O)N2 | 0.003 µg/mL (≈ 0.00192 µM) | 0.0005 µg/mL (≈ 0.000321 µM) | 0.007 µg/mL (≈ 0.00449 µM) | > 10 mg/kg | – | – | – | 120 µg/mL (≈ 76.9 µM) |
| COCCOCCOCCOCCNC(=O)[C@H](C)NC(=O)c1csc(-c2nc3c(cc2O)-c2nc(cs2)C(=O)N[C@@H]([C@@H](C)O)C(=O)N/C(=C(\C)OC)c2nc(cs2)C(=O)N[C@@H]2c4nc(cs4)C(=O)N[C@@H](COC(=O)c4c5c6c(cccc6n4O)COC(=O)[C@@H](O[C@H]4C[C@](C)(O)[C@H](N(C)C)[C@H](C)O4)[C@H]2OC5)c2nc-3cs2)n1 | 0.06 µg/mL (≈ 0.0368 µM) | 0.003 µg/mL (≈ 0.00184 µM) | 0.5 µg/mL (≈ 0.307 µM) | – | – | – | – | – |
